A short description of data set [1]: habit of the particles evaluated on a microscope image (ratio of largest to smallest size). It is filed as physicochemical. As to the method: The predominantly spherical shape manifests itself in that in this preferred embodiment the ratio of the largest to the smallest size of the individual particles is on average ≦2. This ratio is determined by measurement on a microscope image of the particles, by determining the ratio of the largest to the smallest size of each individual particle for at least 50 randomly selected particles and then ascertaining the average over the at least 50 particles. Preferably, the ratio of the largest to the smallest size of the individual particles is on average ≦1.6.
Immediately after the end of the stirring time, the batch is filtered using a nutsch filter with a negative pressure of 100 mbar on the filtrate side and washed with 1.0 l water. The moist filter cake has a mass of approx. 1100 g and is transferred into a 3-l container, topped up to 2160 g with water and redispersed with the Ultra Turrax T50 (|KA) at 12,000 1/min for 10 min. After this, the third d50 value is determined to be 1.28 μm from this second suspension. The span value of the particles is 1.28. The habit is evaluated microscopically as stated above (light microscope image). Habit of the particles: spherical; ratio of the largest to the smallest size of the individual particles on average=1.48. The second suspension is then spray-dried and the particles of fluticasone propionate are obtained.

For data set [2] the following is noted: microparticles by the method of DE 102008037025 A1, as stated in the background; cited from earlier work.
Data set [3] can be described thus: solubility of the active substance in the solvent-antisolvent (acetone-water) mixture of the first suspension. In kind it is physicochemical. The note with it: acetone content reduced to 42% by addition of water. An excerpt: Solubilities of the active substance in the solvent-antisolvent mixture of the first suspension of 0.001-0.5 wt. % are suitable for carrying out the method according to the invention. Solubilites of 0.01-0.2 wt. %, in particular 0.02-0.2 wt. % are preferred. By solubility is meant, within the framework of the invention, the usual solubility known to a person skilled in the art, namely the solubility of a substance in thermodynamic equilibrium at room temperature in the solvent-antisolvent mixture. The solubilities are not relative to volume, i.e., they specify the solubility of the active substance in the total volume of the liquid phase of the suspension. It is clear from the stated solubilities that microparticles of active substance are present throughout the method.

The nature of data set [4]: particle size (d50) and span by laser diffraction, Mastersizer E. The note with it: for d50 value of the particle size distribution (first d50): acetone:water 1:1. It is filed as physicochemical. An excerpt: The particle size distribution and the diameters of the particles within the framework of the invention are relative to volume. dx means that x percent by volume (vol. %) of the particles have a diameter which is smaller than the stated value. With a d50 value of 1 μm therefore 50 vol. % of the particles have a diameter smaller than 1 μm (micrometre). If d10 or […] is 1 μm, 10 or 90 vol. %, respectively, of the particles have a diameter smaller than 1 μm. The d50 value is also called average particle size or average particle diameter.
Within the framework of the invention, the average particle size (d50 values) and the particle size distribution were measured by means of laser diffraction, which provides a distribution of the particle sizes. A Mastersizer E (Malvern Instruments) was used. 5 mg solid is dispersed for 20 min in 5 ml 0.1% aqueous sodium dodecyl sulphate solution using ultrasound (2 mm sonotrode, sonicator UPS 200, Dr. Hielscher GmbH, 30% amplitude) and placed in the measurement cell of the Mastersizer E, an optical concentration of 18% is set and measurement is carried out (Fraunhofer evaluation). The span was calculated from the d10, d50 and d90 values ((d90 −d10);d50 ).

Data set [5] is described as follows: granulometric analysis and span by laser diffraction (Sympatec, RODOS), reference test according to DE 102008037025 A1. In kind it is physicochemical. The following applies: Comparison example, spray-dried, dispersing pressure 5 bar. As for the experimental part:
A 100-ml stirred vessel with blade stirrer is charged with 160 g of Y-stabilized zirconium oxide spheres with a diameter of 0.5 mm plus 30 ml of water. A solution of 0.6 g fluticasone propionate in 10 ml acetone is added to these, with stirring. After stirring for 5 min, a solution of 1.8 g fluticasone in 30 ml acetone and in the same ratio 90 ml water are added dropwise within 10 min, with stirring at 1300 rev/min. Simultaneously, product suspension is drawn off, with approximately constant filling level. Addition and product withdrawal can also take place quasicontinuously in smaller portions without any adverse effect on the result, if the above time frame is maintained. After addition, to complete the yield rinsing is carried out with approx. 60 ml water. Alternatively, the suspension in the crystallizer can be left as starting suspension for the subsequent batch. Altogether, 180 g of suspension with a solids content of 13 mg per ml is obtained. The suspension is then spray-dried Granulometric analysis and span determination were effected by means of laser diffraction (Sympatec Helps, RODOS dispersing system, dispersing pressure 5 bar).

[6] abbreviates: Example 1, light microscope image.
[7] abbreviates: Example 2, mixture of the second suspensions of the preceding and subsequent batch.

Some results are limits rather than exact numbers.

Data on one compound can be found in US20160271145A1, “METHOD FOR ENLARGING THE PARTICLE SIZE OF CRYSTALLINE MICROPARTICLES OF ACTIVE SUBSTANCE” (Jesalis Pharma GmbH, priority 2012, published 2016).

Consider `CCC(=O)O[C@]1(C(=O)SCF)[C@H](C)C[C@H]2[C@@H]3C[C@H](F)C4=CC(=O)C=C[C@]4(C)[C@@]3(F)[C@@H](O)C[C@@]21C` [fluticasone propionate], for which the “habit of the particles” value in data set [1] (setting [6]) is reported as “spherical”; in data set [1] (Example 2, subsequent batch), “spherical”. Moreover, the “ratio of the largest to the smallest size of the individual particles on average” value in data set [1] (setting [6]) amounted to 1.48; in data set [1] (Example 2, subsequent batch), 1.45. For the same compound, the d50 values in data set [2] is recorded as 1-2 μm. In addition, the span values in data set [2] is on record as at least 1.7. The “solubility of fluticasone propionate” value in data set [3] came out at 0.032 wt. %. Moreover, in data set [4] (Example 1, after 4.5 h stirring, 42% acetone), the “second d50” value stood at 1.12 μm. Moreover, the “span value of the particles” value in data set [4] (Example 1, second suspension) is recorded as 1.28. The “third d50 value” in data set [4] (Example 1, second suspension after further 17 h stirring, filtration and redispersing in water) was determined as 1.28 μm; in data set [4] (Example 2, preceding batch, second suspension after further 13 h stirring), 1.24 μm; in data set [4] (Example 2, subsequent batch, second suspension, stirring time increased to 18 h) it was 1.30 μm. The “d50 value of the particle size distribution (first d50)” value in data set [4] (Example 1, starting suspension) was 0.98 μm; in data set [4] (Example 2, preceding batch, starting suspension), 0.99 μm; in data set [4] (Example 2, subsequent batch, starting suspension) it was 0.97 μm. In addition, the d50 value in data set [4] (setting [7]) is given as 1.28 μm. Besides, the “span value of the distribution” value in data set [4] (setting [7]) came out at 1.28; in data set [4] (Example 2, preceding batch, second suspension) it was 1.29; in data set [4] (Example 2, subsequent batch, second suspension), 1.24. In data set [4] (Example 2, preceding batch, after 4.0 h stirring, 42% acetone), the “second d50 value” was found to be 1.12 μm. The “intermediate d50 value” in data set [4] (Example 2, subsequent batch, after 3.5 h stirring, 42% acetone) stood at 1.09 μm. Further, in data set [5], the d50 was found to be 1.47 μm. The compound also returned a span in data set [5] of 1.78.
